Measurements from patent US20220354870A1, “READY-TO-USE BUPIVISONE PLUS LIQUID FORMULATION” (LEITERS, Inc., priority 2021, published 2022).
Entries after “also recorded” stand apart in the source; their conditions may differ. Where a name gives a salt, the structure may show the parent alone.

Columns and labels:
Format in all cases: physicochemical
[1] = Stability testing of syringed formulation with methylparaban (Example 2); settings: stability study
Description: (§1) The samples were produced using an approved batch record and shipped to contract laboratories for stability testing. The samples were stored according to ICH Q1A (R2) as follows: • Long term: Refrigerated (5° C. ±3° C.) in Horizontal Orientation, Protected from Light • Accelerated Condition: Room Temperature (25° C. ±2° C. and 40% RH ±5% RH) Horizontal Orientation, Protected from Light
(§2) The method development procedure for the strength and potency aligned with the defined criteria in USP <1225> for a stability indicating method. The procedures used for microbiology testing were based on method suitability performed at T0.

[2] = Stability testing of syringed formulation prepared without preservative (Example 3); settings: stability study
Description: The formulations without a preservative were prepared following the method described in Example 1 except no preservative(s) was used.
as §1, §2

[3] = Potency after room temperature storage of syringe in nitrogen-flushed hermetically sealed pouch (Example 4); settings: formulation of Table 4 (no preservative) in syringe, hermetically sealed pouch flushed with nitrogen
Description: A preliminary evaluation of the feasibility of packaging syringes was performed. Hermetically sealed pouch containing a syringe with the exemplary formulation from Table 4 was flushed with nitrogen to reduce oxygen levels.

Row | SMILES | Impurities of the active versus FDA/ICH guidelines ([1]; hydrochloride) | Impurities of the active versus FDA/ICH guidelines ([1]; listed as Bupivicaine, hydrochloride) | Impurities of the active versus limits of ICH guidelines, FDA and in-house SOP [2] | Potency (% label claim) after storage at room temperature for 90 days [3] [%] | Impurities of the active versus FDA/ICH guidelines [1]
1 | CCCCN1CCCCC1C(=O)Nc1c(C)cccc1C (stereo not shown) [Bupivacaine HCl, bupivacaine hydrochloride] | met FDA/ICH Guidelines | met the acceptable limits | met the acceptable limits | 97.2 | 
2 | CNC[C@H](O)c1ccc(O)c(O)c1 [Epinephrine, epinephrine] |  |  | met the acceptable limits | 104.2 | met FDA/ICH Guidelines; also recorded: met the acceptable limits
